Measurements as given in ChEMBL document CHEMBL3045085, “Structureactivity relationship study of growth inhibitory 2-styrylchromones against carcinoma cells” (2013).

Key:
Type in all cases: functional
[1] = Growth inhibition of Homo sapiens (human) H460 cells after 48 hr by MTT assay; conditions: NCI-H460, 48 h
[2] = Growth inhibition of Homo sapiens (human) SKHep cells after 48 hr by MTT assay
AGS = assay: Growth inhibition of Homo sapiens (human) AGS cells after 48 hr by MTT assay
OVCAR = assay: Growth inhibition of Homo sapiens (human) OVCAR cells after 48 hr by MTT assay
HeLa = assay: Growth inhibition of Homo sapiens (human) HeLa cells after 48 hr by MTT assay
PC-3 = assay: Growth inhibition of Homo sapiens (human) PC3 cells after 48 hr by MTT assay; conditions: PC-3, 48 h
SW-620 = assay: Growth inhibition of Homo sapiens (human) SW620 cells after 48 hr by MTT assay; conditions: SW-620, 48 h

SMILES	GI50 [1] [nM]	GI50 [2] [nM]	GI50 (AGS) [nM]	GI50 (OVCAR) [nM]	GI50 (HeLa) [nM]	GI50 (PC-3) [nM]	GI50 (SW-620) [nM]
O=c1cc(/C=C/c2ccccc2)oc2ccccc12	> 40000	> 40000	> 40000	21000	25000	–	–
COc1cccc2c1C(=O)c1c(O)c3c(c(O)c1C2=O)C[C@@](O)(C(=O)CO)C[C@@H]3O[C@H]1C[C@H](N)[C@H](O)[C@H](C)O1 [DOXORUBICIN]	110	90	20	950	330	1760	30
O=c1cc(/C=C/c2ccc3c(c2)OCO3)oc2ccccc12	> 40000	> 40000	> 40000	> 40000	14000	–	–
